Data reported in ChEMBL document CHEMBL1144408, “Novel atypical antipsychotic agents: rational design, an efficient palladium-catalyzed route, and pharmacological studies” (J Med Chem, 2005).
pKi: −log10 of the molar value. Where “and” joins values, the source holds several entries; their conditions need not be identical. Equal entries are not always repeated.

Key:
[1] = molecular target: T1, 5-hydroxytryptamine receptor 2C (Rattus norvegicus, UniProt P08909); test: Inhibition of [3H]mesulergine binding to rat 5-hydroxytryptamine 2C receptor
T1 sequence (P08909 whole entry): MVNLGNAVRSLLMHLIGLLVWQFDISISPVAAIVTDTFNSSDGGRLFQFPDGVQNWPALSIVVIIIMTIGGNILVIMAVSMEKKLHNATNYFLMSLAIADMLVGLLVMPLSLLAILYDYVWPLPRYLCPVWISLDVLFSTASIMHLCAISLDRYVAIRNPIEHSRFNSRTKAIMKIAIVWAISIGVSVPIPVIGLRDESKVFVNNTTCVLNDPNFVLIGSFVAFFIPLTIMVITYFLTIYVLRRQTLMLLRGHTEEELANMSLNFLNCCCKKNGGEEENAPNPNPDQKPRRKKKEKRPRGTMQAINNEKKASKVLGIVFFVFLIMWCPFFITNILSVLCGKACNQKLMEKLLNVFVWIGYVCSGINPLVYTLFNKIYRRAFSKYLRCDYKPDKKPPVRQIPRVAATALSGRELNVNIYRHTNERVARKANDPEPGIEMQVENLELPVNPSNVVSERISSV

D(1A) dopamine receptor = D(1A) dopamine receptor (Rattus norvegicus, UniProt P18901)
Description: Inhibition of [3H]-SCH- 23390 binding to rat dopamine D1 receptor

D(3) dopamine receptor = D(3) dopamine receptor (Homo sapiens, UniProt P35462); test: biochemical
Description: Inhibition of [3H]7-OH-DPAT binding to Dopamine D3 receptor expressed in Sf9 cells

Rattus norvegicus [2] = test: In vivo effective dose against catalepsy response was determined in rats; assay type: functional
Rattus norvegicus [3] = test: In vivo effective dose was determined against apomorphine climbing in rats; assay type: functional
Rattus norvegicus [4] = test: In vivo effective dose of compound against 5-MeO-DMT induced head twitches in rats; assay type: functional
Rattus norvegicus [5] = test: In vivo effective dose against 5-MeO-DMT-induced head twitches in rats was determined; assay type: functional
Rattus norvegicus [6] = species: Rattus norvegicus; test: animal or person
Description: In vivo effective dose against conditioned avoidance response was determined in rats

Rattus norvegicus [7] = species: Rattus norvegicus; test: animal or person; remark: listed apart in the source
Description: In vivo effective dose against spontaneous locomotor activity was determined in rats

D(1A) dopamine receptor, sequence (P18901 whole entry): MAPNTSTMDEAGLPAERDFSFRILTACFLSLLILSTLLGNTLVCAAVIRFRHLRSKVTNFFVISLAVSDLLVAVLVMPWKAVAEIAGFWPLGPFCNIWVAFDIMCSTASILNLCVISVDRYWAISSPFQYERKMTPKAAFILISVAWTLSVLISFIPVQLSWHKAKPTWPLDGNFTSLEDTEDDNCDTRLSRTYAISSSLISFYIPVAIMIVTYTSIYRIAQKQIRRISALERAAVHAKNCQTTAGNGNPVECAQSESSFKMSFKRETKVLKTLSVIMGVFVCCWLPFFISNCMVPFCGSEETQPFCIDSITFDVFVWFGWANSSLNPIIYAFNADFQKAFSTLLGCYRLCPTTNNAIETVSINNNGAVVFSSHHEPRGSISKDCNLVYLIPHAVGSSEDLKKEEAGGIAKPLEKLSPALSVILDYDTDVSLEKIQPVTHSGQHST
D(3) dopamine receptor, sequence (P35462 whole entry): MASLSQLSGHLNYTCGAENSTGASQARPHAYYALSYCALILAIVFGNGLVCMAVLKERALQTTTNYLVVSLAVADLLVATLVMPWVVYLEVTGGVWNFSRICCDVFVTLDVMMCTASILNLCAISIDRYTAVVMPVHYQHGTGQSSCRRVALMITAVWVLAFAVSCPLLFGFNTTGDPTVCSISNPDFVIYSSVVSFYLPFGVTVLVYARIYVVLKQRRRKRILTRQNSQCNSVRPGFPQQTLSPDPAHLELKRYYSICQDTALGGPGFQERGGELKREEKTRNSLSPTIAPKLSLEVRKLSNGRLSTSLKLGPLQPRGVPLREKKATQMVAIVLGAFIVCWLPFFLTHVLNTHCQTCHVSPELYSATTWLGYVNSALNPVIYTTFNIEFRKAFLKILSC

| Compound | pKi [1] | pKi (D(1A) dopamine receptor) | pKi (D(3) dopamine receptor) | ED50 (Rattus norvegicus [2]) | ED50 (Rattus norvegicus [3]) | ED50 (Rattus norvegicus [4]) | ED50 (Rattus norvegicus [5]) | ED50 (Rattus norvegicus [6]) | ED50 (Rattus norvegicus [7]) |
| --- | --- | --- | --- | --- | --- | --- | --- | --- | --- |
| Cc1ccc2n1Cc1ccccc1C=C2N1CCN(C)CC1 | 7.82 | 6.64 | 7.05 | – | – | – | – | – | – |
| CN1CCN(C2=Cc3cc(Cl)ccc3Cn3cccc32)CC1 | 8.42 | 7.32 | 7.62 | – | – | – | – | – | – |
| CN1CCN(C2=Cc3ccccc3Cn3cccc32)CC1 | – | – | 6.65 | > 100 mg/kg and > 357 µmol/kg | 0.5 µmol/kg and 0.14 mg/kg | 0.12 mg/kg | 0.43 µmol/kg | 0.56 mg/kg and 2 µmol/kg | 1.6 mg/kg and 5.73 µmol/kg |
| CN1CCN(C2=Cn3cccc3Sc3sccc32)CC1 | – | 8.31 | 7.60 | – | – | – | – | – | – |
| CN1CCN(C2=Cn3cccc3Sc3ccccc32)CC1 | – | – | – | > 100 mg/kg and > 336 µmol/kg | 1.64 mg/kg and 5.51 µmol/kg | 1.99 mg/kg | 6.69 µmol/kg | – | 0.51 mg/kg |
| CN1CCN(C2=Nc3cc(Cl)ccc3Nc3ccccc32)CC1 [CLOZAPINE] | – | – | – | > 100 mg/kg and > 306 µmol/kg | 5.72 mg/kg and 17.5 µmol/kg | 5.35 mg/kg | 16.4 µmol/kg | – | – |
